Measured values from patent publication US5989846A, “Assays to identify inducers of plant defense resistance” (Rutgers, The State University of New Jersey, priority 1995, dated 1999).
Counter-ions that a name gives are not always drawn. Like-named read-outs stand apart in the source and are kept apart here.

What was measured:
SABP = test system: SABP; design: concentration or dose not given beside the values; conditions: Table 6; previously published data (Chen et al. 1993); cited from earlier work
[1] = test system: resistance or PR gene expression; design: key: ++: indicates a high level of biological activity; +: indicates a lower level of biological activity; ±: indicates low, but detectable biological activity in some assays; -: indicates no biological activity; conditions: Table 3; values reported in literature; cited from earlier work
[2] = test system: salicylic acid binding protein; assay: Competitive [14C] salicylic acid binding assay (spin-column); design: species or system tobacco; conditions: [14C] salicylic acid 20 μM; for Inhibition (%) 2×: 40 μM (2×) unlabeled competitor; for Inhibition (%) 10×: 200 μM (10×) unlabeled competitor
Method: The 180 kDa native binding protein isolated was tested for binding affinity and specificity. A competitive assay was established using salicylic acid binding protein fractionated from plants as previously described.
A key element during the characterization and the purification process is a simple, inexpensive, sensitive and reliable method for determining the salicylic acid binding activity. For this purpose, spin-column exclusion chromatography was used to separate the bound [^14 C] salicylic acid (excluded) from the bulk free salicylic acid (included). Specifically, a 1.5 ml Eppendorf tube was punctured at the tip with a 20-gauge needle and a small amount of glass wool was added to cover the small hole. The tube was then filled with Bio-Gel P-6DG desalting gel (exclusion limit 6 KDa; purchased from Bio-Rad, Melville, N.Y.) which have been swollen in water. An alternative gel is Sephadex G-25 fine (from Pharmacia, Piscataway, N.J.). Excess liquid in the gel was removed and centrifuged for 5 minutes at full speed in a Dynamic centrifuge (Becton Dickinson). The process was then repeated several times until the gel filled the tube. After incubation of an aliquot of the extract or column fractions for 2 hr at 4° C. with 5 μM-20 μM [^14 C salicylic acid] (specifically radioactivity 55 Ci/mol; purchased from New England Nuclear), 150 μl of proteins binding sample was loaded onto the tube column, which was then rapidly centrifuged for 2 minutes at full speed and the solution of proteins and bound [^14 C-salicylic acid] that was excluded from the gel was collected into another tube that had been placed under the tube column during the centrifugation. One hundred microliters of this solution was then used to determine the amount of bound salicylic acid. […] For example, to determine the inhibitory effect of various salicylic acid analogues on salicylic acid binding activity, these individual analogues were included in the binding mixture containing both the protein and [^14 C] salicylic acid during the 2 hr incubation, and resulting binding activity was determined in comparison to the activity in the absence of these analogues. Likewise, to determine the effect of pH and antioxidants on the binding activity the protein sample was either dialyzed against a large volume of buffers with different pH or antioxidants were added to the protein sample to various concentrations and the resulting binding activities were then determined with the spin-column method in comparison with the activity determined in the absence of these treatments.

[3] = molecular target: T1, catalase activity of SABP (Nicotiana tabacum, UniProt P49319); assay: Catalase activity of highly purified SABP (luminol method); format: biochemical, tobacco; conditions: for inhibition at 1000 µM: 0.05 h, 1 mM SA or analogue, 1 mM H2O2, 500 ng highly purified SABP; for Inhibition of the catalase activity of SABP (in words): compared with SA
T1 sequence (P49319 1-492): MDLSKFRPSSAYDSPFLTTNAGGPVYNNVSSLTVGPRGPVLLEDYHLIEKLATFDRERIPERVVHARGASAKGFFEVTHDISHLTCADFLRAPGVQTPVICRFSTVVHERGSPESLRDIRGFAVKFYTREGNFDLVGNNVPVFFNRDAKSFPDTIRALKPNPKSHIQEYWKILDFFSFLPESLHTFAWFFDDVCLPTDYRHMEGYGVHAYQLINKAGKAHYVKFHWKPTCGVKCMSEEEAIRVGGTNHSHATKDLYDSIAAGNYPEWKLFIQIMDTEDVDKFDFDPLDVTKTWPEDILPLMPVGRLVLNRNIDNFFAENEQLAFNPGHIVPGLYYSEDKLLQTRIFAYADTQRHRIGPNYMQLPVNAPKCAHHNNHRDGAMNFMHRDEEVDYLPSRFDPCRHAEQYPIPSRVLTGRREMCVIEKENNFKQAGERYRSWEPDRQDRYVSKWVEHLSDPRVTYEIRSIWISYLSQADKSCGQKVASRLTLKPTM
Method: Aliquots (50 μl) were removed from the assay mixture at 30 second intervals to assay for amount of H2 O2 remaining using the luminol method as has been described by Warm and Laties, Phytochem. […] The tube was placed in the measuring chamber and assay was initiated with automatic injection into the mixture of 100 μl of 0.5 mM K3 Fe(CN)6 in 0.2N NH4 OH, pH 9.5. Measurements were integrated over 5 second periods. H2 O2 was calculated from the standard curve constructed with known amounts of H2 O2. Rate constants of SABP catalase activity in the presence or absence of SA or its analogues were then calculated based on a first-order mechanism.

ascorbate peroxidase = assay: Ascorbate peroxidase activity in tobacco leaf extracts; format: biochemical, Nicotiana tabacum cv. Xanthi nc; conditions: 200 μM compound, corrected for quenching of auto oxidation
Method: […] Two grams of leaves from 6-8 week old tobacco plants (Nicotiana tabacum cv. Xanthi nc) grown at 22° C. in a 14 hr light cycle were homogenized under liquid nitrogen using a pestle and mortar.
To obtain ascorbate peroxidase-containing extracts, the soluble proteins were extracted by grinding the powder in 10 ml of 100 mM potassium phosphate, pH 7, containing […] ascorbate and 1% (weight/volume) polyvinylpyrrolidone, with a small amount of quartz sand. The homogenate was centrifuged at 14,000 g for 5 min. […] The pellet resulting from centrifugation (14,000 g, 15 min.) was resuspended in extraction buffer (100 mM potassium phosphate, pH7, containing 0.25 mM ascorbate and 1% (weight/volume) polyvinylpyrrolidone) and desalted on a PD-10 column (Pharmacia) equilibrated with 50 mM potassium phosphate, pH 7, containing 100 μM ascorbate. The extract was used immediately. […] The amount of protein per assay was 30-50 μg. Oxidation of ascorbate was followed by the decrease in the absorbance at 290 nm.
The values illustrated in FIG. 17 are the mean values for three replicated assays.

[4] = test system: salicylic acid binding protein; assay: Binding of 14C-labelled ligands by partially purified SABP; design: species or system tobacco; conditions: for [14C] radioactivity bound, with protein / [14C] radioactivity bound, without protein: 50 μM ligand, n = 3, SD; for [14C] radioactivity bound, with protein: 3 mg/ml partially purified SABP; for [14C] radioactivity bound, without protein: no protein
Method: Binding was assayed with 3 mg/ml of the
A key element during the characterization and the purification process is a simple, inexpensive, sensitive and reliable method for determining the salicylic acid binding activity. For this purpose, spin-column exclusion chromatography was used to separate the bound [^14 C] salicylic acid (excluded) from the bulk free salicylic acid (included). Specifically, a 1.5 ml Eppendorf tube was punctured at the tip with a 20-gauge needle and a small amount of glass wool was added to cover the small hole. The tube was then filled with Bio-Gel P-6DG desalting gel (exclusion limit 6 KDa; purchased from Bio-Rad, Melville, N.Y.) which have been swollen in water. An alternative gel is Sephadex G-25 fine (from Pharmacia, Piscataway, N.J.). Excess liquid in the gel was removed and centrifuged for 5 minutes at full speed in a Dynamic centrifuge (Becton Dickinson). The process was then repeated several times until the gel filled the tube. After incubation of an aliquot of the extract or column fractions for 2 hr at 4° C. with 5 μM-20 μM [^14 C salicylic acid] (specifically radioactivity 55 Ci/mol; purchased from New England Nuclear), 150 μl of proteins binding sample was loaded onto the tube column, which was then rapidly centrifuged for 2 minutes at full speed and the solution of proteins and bound [^14 C-salicylic acid] that was excluded from the gel was collected into another tube that had been placed under the tube column during the centrifugation. One hundred microliters of this solution was then used to determine the amount of bound salicylic acid. With this binding assay, characterization of the salicylic acid binding protein can be carried out very rapidly. For example, to determine the inhibitory effect of various salicylic acid analogues on salicylic acid binding activity, these individual analogues were included in the binding mixture containing both the protein and [^14 C] salicylic acid during the 2 hr incubation, and resulting binding activity was determined in comparison to the activity in the absence of these analogues. Likewise, to determine the effect of pH and antioxidants on the binding activity the protein sample was either dialyzed against a large volume of buffers with different pH or antioxidants were added to the protein sample to various concentrations and the resulting binding activities were then determined with the spin-column method in comparison with the activity determined in the absence of these treatments.

TMV = format: in vivo, tobacco mosaic virus
Method: The SA/SAG valves are given in micrograms per gram fresh weight of leaf tissue and represent averages of values from 3-6 treated plants at 6 days past injection. […] For determination of reduction in lesion size, longitudinal halves of 2 leaves on 3-6 plants were injection with chemicals, and six days later the entire leaf was infected with TMV. Twenty lesions were measured on each half of the leaf seven days post infection; the values given represent the average percent reduction in lesion diameter in the treated leaf half compared to the untreated half.

| Inhibition (%) 2× [2] [%] | Inhibition (%) 10× [2] [%] | inhibition at 1000 µM [3] [%] | Compound | Inhibition (%) [14C]SA binding (SABP) [%] | Biological activity [1] | further results |
| --- | --- | --- | --- | --- | --- | --- |
| 1 | 10 | 15.3 | O=C(O)c1cccc(O)c1O [2,3-Dihydroxybenzoic acid] | 9 | ± | Inhibition of the catalase activity of SABP (in words) [3]: poor inhibitor |
| -1 | -2 | 5.2 | O=C(O)c1ccc(O)cc1O [2,4-Dihydroxybenzoic acid] | -4 | - |  |
| 1 | -1 | 3.2 | O=C(O)c1cc(O)ccc1O [2,5-Dihydroxybenzoic acid] | 1 | - |  |
| 51 | 91 | 91.3 | O=C(O)c1c(O)cccc1O [2,6-Dihydroxybenzoic acid] | 92 | ++ | Inhibition of the catalase activity of SABP (in words) [3]: somewhat stronger; % Inhibition of ascorbate peroxidase (ascorbate peroxidase): 72 ± 8% |
|  |  |  | [Ba+2].[Cl-].[Cl-] [BaCl2, barium chloride] |  |  | Reduction in lesion size (%) (TMV; in vivo): 60% |
|  |  |  | O=C(O)[14c]1ccccc1O [[^14 C] salicylic acid] |  |  | [14C] radioactivity bound, with protein [4]: 989 ± 78 dpm/100 μl; [14C] radioactivity bound, without protein [4]: 89 ± 7 dpm/100 μl |
|  |  |  | CC(=O)Oc1ccccc1[14C](=O)O [[carboxyl-^14 C] acetylsalicylic acid] |  |  | [14C] radioactivity bound, with protein [4]: 397 ± 25 dpm/100 μl; [14C] radioactivity bound, without protein [4]: 112 ± 10 dpm/100 μl |
|  |  |  | Cc1ncc(C[n+]2csc(CCO)c2C)c(N)n1 [thiamine-HCl] |  |  | Reduction in lesion size (%) (TMV; in vivo): 71% |
|  |  |  | CCC(N)C(=O)O (stereo not drawn) [α-amino butyric acid] |  |  | Reduction in lesion size (%) (TMV; TMV infection six days after injection, lesions measured seven days post infection, treated vs untreated leaf half): 63% |
|  |  |  | [Acetyl-^14 C] acetylsalicylic acid |  |  | [14C] radioactivity bound, with protein [4]: 96 ± 10 dpm/100 μl; [14C] radioactivity bound, without protein [4]: 104 ± 9 dpm/100 μl |

| Compound | Inhibition (%) 2× [2] [%] | Inhibition (%) 10× [2] [%] | inhibition at 1000 µM [3] [%] | Inhibition (%) [14C]SA binding (SABP) [%] | Biological activity [1] | further results |
| --- | --- | --- | --- | --- | --- | --- |
| O=C(O)c1ccc(O)cc1 [4-Hydroxybenzoic acid] | 1 | -2 | 4.1 | -2 | - | % Inhibition of ascorbate peroxidase (ascorbate peroxidase): 0 ± 6% |
| CC(=O)Oc1ccccc1C(=O)O [Acetylsalicylic acid] | 25 | 57 | 53.6 | 48 | ++ | Inhibition of the catalase activity of SABP (in words) [3]: weaker than SA; Binding by the salicylic acid binding protein ([4]; conclusion from Table 4): not actually bound |
